Results as given in patent publication US6861430B2, “β-carboline derivatives and its pharmaceutical use against depression and anxiety” (Novartis AG, priority 2001, dated 2005).

Tests used:
[1] = test system: mice; assay: social recognition test; format: in vivo; conditions: doses between 0.03 and 3 mg/kg p.o.
Description: The agents of the invention at 0.03-3 mg/kg p.o. enhance leaming/mlmory in mice as measured in the social recognition test similar to oxiracetam or GABAB blockers (Thor D. H. and Holloway W. R. J. Comp. Physiol. Psychol. 1982; 96: 1000-1006. Mondadori C. et al., Behavioural Brain Research 1996, 77: 227-229).
(§1) The preferred agent of the invention for the above-mentioned indications is the (R)-1,1-bis-ethoxymethyl-3-(4-phenyl-1H-imidazol-2-yl)-2,3,4,9-tetrahydro-1H-β-carboline, in free base or acid addition salt form. […] In the forced swim test (Porsolt), the immobility time is shortened by 30-45% on subchronic administration of 12.5-25 mg/kg p.o.

[2] = test system: rat; assay: forced swim test (Porsolt), rat; format: in vivo; conditions: subchronic administration of 12.5-25 mg/kg p.o.
Description: The agents of the invention show antidepressant-like effects in the rat, similar to desipramine or fluoxetine when given subchronically (10-30 mg/kg, p.o.) in the forced swim test. (Porsolt, R. D. et al. Nature. 1977: 266, 730-732) and also produce antidepressant-like effects in the mouse, similar to fluoxetine (Porsolt, R. D. et al. Nature 1977: 266, 730-732). Finally, these agents, when given once per day for 14 days, (0.3-30 mg/kg p.o.), reverse both the characteristic hyper-reactivity of bulbectomised rats when first placed in a novel and stressful environment and the total activity, similar to imipramine and desipramine. (Song C and Leonard BE. Hum. Psychopharmacol 1994; 9: 135-146).
as §1

[3] = target: somatostatin sst3 receptors (Homo sapiens, UniProt P32745); assay: radioligand binding, somatostatin receptor expressing cell cultures; conditions: sst3 versus other somatostatin receptors
Description: (§2) In particular the agents of the invention show high affinity to somatostatin receptors. More particularly they are selective antagonists at somatostatin sst3 receptors, previously called SSTR-3 receptors (see Hoyer et al., TiPS, 1995, 16; 86-88), as determined in radioligand binding and second messenger studies [see for example K. Kaupmann et al., FEBS Letts. 1993, 331:53-59.

[4] = passive avoidance test; format: in vivo; conditions: 0.1, 1 or 10 mg/kg p.o.
[5] = test system: rats; assay: social exploration test / social contact assay; format: in vivo; conditions: rat
Description: In the social exploration test at doses of about 0.01 to 10 mg/kg p.o., the agents of the invention increase social contact time of rats similarly to classical anxiolytics such as benzodiazepines e.g. chlordiazepoxide or NK1 antagonists (Vassout A, Veenstra S, Hauser K, Ofner S, Brugger F, Schilling W, Gentsch C, Regulatory Peptides. 2000; 96, 7-16).
as §1

[6] = target: mouse sst3 receptor (Mus musculus, UniProt P30935); assay: radioligand binding, mouse sst3 receptor; conditions: read-out: pKd, mouse receptor (converted)
Description: as §2, §1

[7] = target: human sst3 receptor (Homo sapiens, UniProt P32745); assay: radioligand binding, human sst3 receptor; conditions: read-out: pKd, human receptor (converted)
Description: as §2, §1

human sst3 receptor, sequence (P32745 whole entry): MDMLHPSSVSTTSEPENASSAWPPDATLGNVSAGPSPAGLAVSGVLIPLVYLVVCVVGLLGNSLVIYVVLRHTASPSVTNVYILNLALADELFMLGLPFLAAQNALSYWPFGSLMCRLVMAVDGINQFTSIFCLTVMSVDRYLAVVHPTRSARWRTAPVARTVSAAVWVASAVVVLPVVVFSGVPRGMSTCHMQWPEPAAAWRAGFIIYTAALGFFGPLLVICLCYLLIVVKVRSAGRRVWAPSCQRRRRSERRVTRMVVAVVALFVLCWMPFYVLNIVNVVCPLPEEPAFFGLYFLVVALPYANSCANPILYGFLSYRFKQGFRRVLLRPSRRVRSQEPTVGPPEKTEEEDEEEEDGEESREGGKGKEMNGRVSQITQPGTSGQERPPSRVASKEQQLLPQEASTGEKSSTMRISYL
somatostatin sst3 receptors, sequence (P32745 whole entry): as above
mouse sst3 receptor, sequence (P30935 whole entry): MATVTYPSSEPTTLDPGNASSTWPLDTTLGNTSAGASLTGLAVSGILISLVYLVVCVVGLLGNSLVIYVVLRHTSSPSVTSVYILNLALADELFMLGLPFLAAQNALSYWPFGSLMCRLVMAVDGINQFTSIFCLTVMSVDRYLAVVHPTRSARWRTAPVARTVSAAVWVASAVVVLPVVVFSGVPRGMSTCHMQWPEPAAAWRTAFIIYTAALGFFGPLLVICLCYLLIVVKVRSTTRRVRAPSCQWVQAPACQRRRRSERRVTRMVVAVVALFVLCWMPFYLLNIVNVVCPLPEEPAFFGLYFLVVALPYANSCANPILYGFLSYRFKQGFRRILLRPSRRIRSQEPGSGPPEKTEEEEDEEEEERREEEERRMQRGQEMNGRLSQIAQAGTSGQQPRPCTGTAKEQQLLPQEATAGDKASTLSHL

melting point	selectivity over other somatostatin receptors [3]	impairment of memory formation in passive avoidance test [4]	Kd [6]	Kd [7]	Compound	social recognition of a familiar partner [1]	shortening of immobility time [2]	dose of maximal amplitude, social contact assay [5]	duration of social contacts of the intruder towards the resident ([5]; 0.01-10 mg/kg p.o.)
200 to 205 °C	–	–	–	–	CCCCC1(CCCC)N[C@@H](c2nc(-c3ccncc3)c[nH]2)Cc2c1[nH]c1ccccc21 [Example 1, (R)-1,1-Dibutyl-3-(4-pyridin-4-yl-1H-imidazol-2-yl)-2,3,4,9-tetrahydro-1H-β-carboline]	–	–	–	–
–	more than 400 fold	no impairment of memory formation	5.01 nM	2.04 nM	CCOCC1(COCC)N[C@@H](c2nc(-c3ccccc3)c[nH]2)Cc2c1[nH]c1ccccc21 [Example 10, (R)-1,1-bis-ethoxymethyl-3-(4-phenyl-1H-imidazol-2-yl)-2,3,4,9-tetrahydro-1H-β-carboline]	significant increase of social recognition	30-45%	0.3-3 mg/kg p.o.	increases dose dependently the duration of social contacts
